The values below come from patent publication US20250243190A1, “NEW DEUTERATED RORGAMMA/RORGAMMAT INVERSE AGONISTS” (IMMUNIC AG, priority 2022, published 2025).

One may read the CC50 as the concentration at which the toxic effect on the cells reaches its halfway point. Read a high CC50 as lower toxicity to the cells. For orientation: microsomal CLint means a measure of how fast metabolising enzymes remove a compound, apart from limits set by blood flow. Read a low microsomal CLint as greater metabolic stability. What is called Cmax is the peak of the concentration-time curve. One may read the half-life as the time needed for the level to fall by half in the phase considered. A low value points to fast loss. By EC50 is commonly meant the concentration needed to bring the measured effect to its halfway point. One may read the bioavailability as dose-corrected exposure relative to a reference, in per cent. For orientation: AUC(0-inf) means the area under the concentration-time curve extrapolated to infinity. Read a high AUC(0-inf) as more exposure. Broadly, the CL/F is the apparent clearance, not corrected for the fraction that reaches the circulation.

Data set [1] can be described thus: Cell viability assay accompanying the SARS-CoV-2 assay. The note with it: cell viability assay of the SARS-CoV-2 test. The class given is cell-based. An excerpt: (§1) The assay for viral replication (YFP) and the cell viability assay has been described in general in Pathogens 2021; 10:1076 and applied to compounds of the present invention furnished the following results: […]

Data set [2] in a line: Microsomal stability, human liver microsomes. Here is the method: (§2) The conversion to the metabolite was monitored by HPLC-MS/MS. Verapamil served as positive control.
(§3) The metabolism was monitored by HPLC-MS/MS. Verapamil served as positive control. The intrinsic clearance was calculated from the measured remaining compound values.
as §3
For orientation: Microsomes from liver hold many membrane-bound enzymes, among them those of drug oxidation.

Data set [3] can be described thus: Mouse pharmacokinetics, oral or intravenous cassette dosing. Conditions: C57BL/6J, whole blood; for AUC(0-t): read-out: AUC0-24 h; for bioavailability: 5 mg/kg oral vs 1 mg/kg intravenous, read-out: F (bioavailability). It counts as in vivo, mice (C57BL/6J). Here is the method: The pharmacokinetics of the compounds of the present invention was evaluated in 3 male and 3 female mice (C57BL/6J, 8 week old) after oral or intravenous cassette dosing to assess the oral bioavailability. Dose was 5 mg/kg (oral) and 1 mg/kg (intravenous), application volume was 5 mL/kg (oral) and 0.5 mL/kg (intravenous), vehicle was 5% solutol, 95% NaCl solution (at 0.9% saline concentration) for oral and 5% solutol, 5% Ethanol, 90% NaCl solution (at 0.9% saline concentration) for intravenous. At each designated time point (0.25, 0.5, 1, 2, 4, 8 and 24 h after dosing), 20 μL whole blood were collected from the tail vein into Li-heparin tubes, frozen on dry ice within 1-2 minutes of sampling and stored at −20° C. until processed for LC-MS analysis. The obtained data is as follows:
The pharmacokinetics of additional compounds of the present invention was evaluated in 3 female mice (C57BL/6J, 8 week old) after oral cassette dosing. Dose was 5 mg/kg, application volume was 5 mL/kg, vehicle was 5% solutol, 95% NaCl solution (at 0.9% saline concentration). At each designated time point (0.5, 1, 2, 4, 8 and 24 h after dosing), 20 μL whole blood were collected from the tail vein into Li-heparin tubes, frozen on dry ice within 1-2 minutes of sampling and stored at −20° C. until processed for LC-MS analysis. The obtained data is as follows:
The pharmacokinetics of additional compounds of the present invention was evaluated in 3 female mice (C57BL/6J, 8 week old) after oral cassette dosing. Dose was 5 mg/kg, application volume was 5 mL/kg, vehicle was 5% solutol, 95% NaCl solution (at 0.9% saline concentration). At each designated time point (0.25, 0.5, 1, 2, 4 and 8 h after dosing), 20 μL whole blood were collected from the tail vein into Li-heparin tubes, frozen on dry ice within 1-2 minutes of sampling and stored at −20° C. until processed for LC-MS analysis.

For data set [4], the system named is influenza A. The experiment in a line: Antiviral activity on influenza A. Conditions: Influenza A virus; read-out: EC50 range. It counts as cell-based. The source says: (§4) The assay for measuring influenza A has been described in general in Antimicrob. Agents Chemother. 2015; 59:2062 and applied to compounds of the present invention furnished the following representative results: […]

Data set [5] is described as follows: CC50 accompanying the influenza A assay. It counts as cell-based. The note with it: influenza A test.
Text: as §4

Data set [6] addresses T1, RORγt (Homo sapiens, UniProt P51449).
T1 sequence (P51449 269-508 limits assumed): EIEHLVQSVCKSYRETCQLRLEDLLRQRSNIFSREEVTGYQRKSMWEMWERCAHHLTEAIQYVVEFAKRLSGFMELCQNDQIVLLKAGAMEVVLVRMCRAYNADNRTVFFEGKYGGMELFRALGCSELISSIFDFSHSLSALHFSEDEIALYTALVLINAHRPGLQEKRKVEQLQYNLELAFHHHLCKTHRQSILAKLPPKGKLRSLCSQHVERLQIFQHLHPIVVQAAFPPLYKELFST
The experiment in a line: Indigo Biosciences Human RAR-related Orphan Receptor, Gamma Reporter Assay (in vitro inhibition of RORγt). The class given is cell-based. Conditions: RORγt reporter cells, luciferase readout, 22-24 h incubation; read-out: IC50 range. The method, then: The in vitro inhibition of RORγt was measured using Indigo Biosciences Human RAR-related Orphan Receptor, Gamma Reporter Assay System (Product #IB304001-32) as described in the technical manual. In brief, 200 μL of Reporter Cells is dispensed into wells of the assay plate and preincubated for 4-6 h. Following the pre-incubation period, culture media are discarded and 200 µL/well of the prepared 1×-concentration treatment media are added. Following 22-24 h incubation, treatment media are discarded and Luciferase Detection Reagent is added. The intensity of light emission (in units of ‘Relative Light Units’; RLU) from each assay well is quantified using a plate-reading luminometer. Average values of RLU were determined for each treatment concentration. Non-linear regression analyses were performed and IC50 values determined using GraphPad Prism software. Provided inverse-agonists ursolic acid served as positive control.
On the technique in general: In a reporter assay the amount or activity of a reporter protein is the signal.

Data set [7] is described as follows: Microsomal stability, rat liver microsomes. Conditions: 60 min. Here is the method:
as §2, §3

For data set [8], the system named is SARS-CoV-2. The experiment in a line: Antiviral activity on SARS-CoV-2, viral replication (YFP) assay. The class given is cell-based. The note with it: Severe acute respiratory syndrome coronavirus 2, read-out: EC50 range.
Text: as §1

For data set [9], the system named is respiratory syncytial virus (RSV, A2 strain expressing eGFP, Long strain or RSV-B). The experiment in a line: Antiviral activity on RSV in HEp-2 cells. The class given is cell-based. The note with it: human respiratory syncytial virus, HEp-2, 45 h, read-out: IC50 (50% inhibitory concentration). Here is the method:
One day before infection, 20,000 HEp-2 cells per well were seeded in a 96-well plate. Example 100 or DMSO vehicle controls were applied on cell monolayers at indicated concentrations and infected immediately after treatment with respiratory syncytial virus (RSV, A2 strain expressing eGFP, Long strain or RSV-B) at MOI 0.001. Cells were incubated for 45 h at 37° C. and 5% CO2. RSV infection was quantified either by counting green fluorescent infected cells using CTL-Immunospot reader or by ICC staining using RSV-targeting antibody. Shown as mean values of triplicate wells normalized to the corresponding vehicle-treated controls ±SD.

Data set [10] is described as follows: Microsomal stability, mouse liver microsomes. Conditions: 60 min. Here is the method: as §2
The metabolism was monitored by HPLC-MS/MS.
Verapamil served as positive control. The intrinsic clearance was calculated from the measured remaining compound values.

Data set [11] in a line: Rat pharmacokinetics, oral or intravenous cassette dosing. The class given is in vivo, rats (strain Wistar RjHAN). The note with it: for AUC(0-inf) / AUC(0-t) / C0 / CL/F / Cmax / bioavailability: Wistar RjHAN, rat, plasma; for bioavailability: po 5 mg/kg vs iv 1 mg/kg. The method, then:
The pharmacokinetics of the deuterated compounds of the present invention was evaluated in 3 male and 3 female rats (strain Wistar RjHAN, 7-8 week old) after oral or intravenous cassette dosing to asses the oral bioavailability. Rats are provided with a catheter in the jugular vein (2-3 days prior to blood sampling). At each designated time point (1, 2, 4, 8 and 24 h after dosing), 100 μL blood were collected into Li-heparin tubes, stored on ice until centrifugation (10 minutes at 3000 g, 4° C.) and plasma was prepared within 45 min after collection, frozen at −20° C. and stored at this temperature until processed for LC-MS analysis.

[12] abbreviates: 3 female mice, 5 mg/kg oral cassette, sampling 0.5-24 h.
Setting [13] is: female mice, 5 mg/kg oral, cassette.
[14] abbreviates: male mice, 5 mg/kg oral, cassette.

Take `[2H]C([2H])(OC1CC1)c1c(-c2c(F)cccc2Cl)noc1-c1cnn(-c2cccc(Cl)c2)c1C(F)(F)F` [Example 102, 3-(2-Chloro-6-fluorophenyl)-5-(1-(3-chlorophenyl)-5-(trifluoromethyl)-1H-pyrazol-4-yl)-4-(cyclopropoxymethyl-d2)isoxazole]: the CC50 was 17000 nM in data set [1] and over 100000 nM in data set [5]. Also, the intrinsic clearance (microsomal CLint) in [2] (both) was 6.7 µL/min/mg; in [7] (rat liver microsomes 9078001 (Corning), Example 102 experiment), 29.4 µL/min/mg. The compound also yielded a Cmax in data set [3] (setting [12]) of 272 ng/mL. Moreover, in data set [3] (setting [12]), the half-life was 7.2 h. Further, the AUC(0-t) in data set [3] (setting [12]) was 970 ng·h/mL. In addition, the figures for the EC50 in data set [4] and in data set [8] were 100 to 1000 nM and under 100 nM, respectively. In data set [6], the IC50 was 10 to 100 nM.
In the case of `[2H]C([2H])([2H])OC(=O)c1c(-c2c(F)cccc2Cl)noc1-c1cnn(-c2cccc(Cl)c2)c1C(F)(F)F` [Example 100, Methyl-d3 3-(2-chloro-6-fluorophenyl)-5-(1-(3-chlorophenyl)-5-(trifluoromethyl)-1H-pyrazol-4-yl)isoxazole-4-carboxylate], the CC50 amounted to 50000 nM in data set [1] and 82000 nM in [5]. The values for the IC50 in [9] and in data set [6] were under 50 nM and under 10 nM, respectively. In data set [3] (setting [12]), this compound displayed a Cmax of 50.5 ng/mL. Further, the half-life in data set [3] (setting [12]) is 6.4 h. Moreover, in data set [3] (setting [12]), the AUC(0-t) is 201 ng·h/mL. This compound displayed a microsomal CLint in data set [10] (male, CD-1, mouse, mouse liver microsomes 10003 CD-1, male (Corning), Example 100 experiment) of 24.4 µL/min/mg. Besides, the EC50 in [4] and in data set [8] was under 100 nM in each case.
Consider `[2H]C([2H])(CC(C)(C)O)n1ncc(-c2onc(-c3c(F)cccc3Cl)c2-c2ncccn2)c1C(F)(F)F` [Example 3, 4-(4-(3-(2-Chloro-6-fluorophenyl)-4-(pyrimidin-2-yl)isoxazol-5-yl)-5-(trifluoromethyl)-1H-pyrazol-1-yl)-2-methylbutan-4,4-d2-2-ol], for which, in [1], the CC50 stood at 22000 nM. Moreover, the microsomal CLint in data set [2] (both) was 2.2 µL/min/mg; in data set [2] (male), 1.1 µL/min/mg; in data set [10] (female, mouse, mouse liver microsomes batch 4338001 female (Corning)), 43.9 µL/min/mg; in data set [10] (female, mouse, mouse liver microsomes batch MDO female (Bioreclamation IVT)), 50.3 µL/min/mg; in data set [10] (male, mouse, mouse liver microsomes batch 0010003 male (Corning)), 24 µL/min/mg; in data set [7] (rat liver microsomes batch 1910100 (Xenotech)) it was 31.4 µL/min/mg. Further, the microsomal CLint in data set [7] (rat liver microsomes batch 4085002 (Corning)) was 29.7 µL/min/mg; in data set [7] (rat liver microsomes batch 9078001 (Corning)), 30.2 µL/min/mg. Moreover, the bioavailability in data set [3] (female mice) turned out to be 34%; in data set [3] (male mice) it was 93%; in data set [11] (female rats), 16%; in data set [11] (male rats), 3.5%. The values for the half-life in [3] (setting [13]) and in data set [3] (setting [14]) were 1.5 h and 2.3 h, respectively. Moreover, the AUC(0-t) in data set [3] (setting [13]) was 771 ng·h/mL; in [3] (setting [14]), 1040 ng·h/mL; in data set [11] (female rats, iv 1 mg/kg), 3660 ng·h/mL; in [11] (female rats, po 5 mg/kg), 2930 ng·h/mL; in data set [11] (male rats, iv 1 mg/kg), 3720 ng·h/mL; in data set [11] (male rats, po 5 mg/kg) it was 649 ng·h/mL. The Cmax in data set [3] (female mice, 5 mg/kg oral, cassette, sampling to 24 h) worked out at 301 ng/mL; in data set [3] (male mice, 5 mg/kg oral, cassette, sampling to 24 h) it was 392 ng/mL; in data set [11] (female rats, po 5 mg/kg), 629 ng/mL; in data set [11] (male rats, po 5 mg/kg), 215 ng/mL. In data set [6], the IC50 lay in the range of 10 to 100 nM. Also, the AUC(0-inf) in data set [11] (female rats, iv 1 mg/kg) stood at 3780 ng·h/mL; in data set [11] (female rats, po 5 mg/kg), 2950 ng·h/mL; in data set [11] (male rats, iv 1 mg/kg) it was 3970 ng·h/mL; in data set [11] (male rats, po 5 mg/kg) it was 692 ng·h/mL. Besides, the C0 came out at 2090 ng/mL in [11] (female rats, iv 1 mg/kg) and 2460 ng/mL in [11] (male rats, iv 1 mg/kg). Further, the CL/F in data set [11] (female rats, po 5 mg/kg) is 132 mL/min/kg; in data set [11] (male rats, po 5 mg/kg), 343 mL/min/kg. The t1/2z is recorded as 6.6 h in [11] (female rats, iv 1 mg/kg); 3.2 h in data set [11] (female rats, po 5 mg/kg); 7.2 h in [11] (male rats, iv 1 mg/kg); 1.9 h in data set [11] (male rats, po 5 mg/kg). Also, the EC50 in data set [8] was under 100 nM.
